Columns and labels:
Echinocloa crus-galli = assay: Greenhouse herbicidal activity, post-emergence; type: in vivo; details: 1.0 kg a.s./ha
Excerpt: (§1) The culture containers used were plastic pots comprising loamy sand with approximately 3.0% humus as substrate. The seeds of the test plants were sown separately for each species. For the post-emergence treatment, the test plants were first grown to a plant height of from 3 to 15 cm, depending on the plant habit, and only then treated with the active ingredients which had been suspended or emulsified in water. To this end, the test plants were either sown directly and grown in the same containers, or they were first grown separately as seedlings and transplanted into the test containers a few days prior to treatment. […] Depending on the species, the plants were kept at from 10-25° C. or 20-35° C., respectively. The test period extended over 2 to 4 weeks. During this time, the plants were attended, and their response to the individual treatments was evaluated. Evaluation was carried out using a scale of from 0 to 100. 100 means no emergence of the plants, or complete destruction of at least the aerial parts, while 0 means no damage, or normal course of growth. The plants used in the greenhouse experiments belong to the following species: [table]

Chenopodium album = assay: Greenhouse herbicidal activity, post-emergence; type: in vivo; details: 1.0 kg a.s./ha
Excerpt: as §1

Pharbitis purpurea = assay: Greenhouse herbicidal activity, post-emergence; type: in vivo; details: 1.0 kg a.s./ha
Excerpt: as §1

[1] = tested on: indole-3-acetic acid (IEA) synthesis reaction; assay: Enzyme assay for inhibitors of indole-3-acetic acid (IEA, auxin) biosynthesis, enzyme extract from plant shoots; type: biochemical, Chenopodium album
Experimental: To obtain the enzyme extract, 2 g of frozen plant shoots of Chenopodium album (common lambsquarters), which had been comminuted in a pestle and mortar under liquid nitrogen, were defrosted at room temperature in 3 ml of 100 mM EPPS extraction buffer (5 mM dithiothreitol, 6 μM pyridoxal phosphate, 10 μM leupeptin, 10 μM Pefabloc SC, pH 8.5) together with a spatula-tipfull of polyvinyl pyrrolidone in the course of 30 minutes with gentle stirring. Thereafter, the plant material was centrifuged for 10 minutes at 4° C. and the supernatant was desalinified on a Sephadex G-25 column (preequilibrated with 5 mM EPPS elution buffer (1 mM dithiothreitol, 6 μM pyridoxal phosphate, 10 μM Pefabloc SC, pH 8.5). The resulting enzyme extract (400 μl) was incubated in the test assay (volume 600 μl) for 2 hours at 37° C. in the presence of 20 μM pyridoxal phosphate, 80 mM EPPS extraction buffer, 50 μM L-tryptophan, 50 μM α-ketoglutarate and 50 μM indole with addition of 100 μl of EPPS extraction buffer and 6 μl of active ingredient solution (10 mM compound I in DMSO). The control without compound I was treated with the corresponding amount of DMSO. The reaction was subsequently stopped by addition of 20 μl 7.2N HCl and 3 ml of ethyl acetate. The control assays without incubation were placed on ice and immediately treated with HCl and ethyl acetate. After reextraction with 3 ml of ethyl acetate, the organic phases (6 ml) are combined and concentrated under a nitrogen stream, and the samples are methylated with diazomethane. […] Thereafter, the amount of IEA-Me was determined immunoanalytically by means of monoclonal antibodies (100% reactivity to IEA-Me); (method of Weiler E. W., Eberle J., Mertens R., Atzorn R., Feyerabend M., Jourdan P. S., Arnscheidt A., Wieczorek U., in: Immunology in Plant Science (Wang T. L., Ed.), Society for Experimental Biology, Seminar Series 29, Cambridge University Press, Cambridge, 1986, pp. 27-58) and used as measurement for the enzyme activities.

Inhibition [%] ([1]; 100 μM compound I, incubation 2 hours at 37° C., control value without incubation subtracted): 73%
synthesis of indole-3-acetic acid from L-tryptophan ([1]; in vitro): inhibited
Structure (SMILES): CNC(=O)C(CNC(=O)c1ccccc1F)NC(=O)c1ccc(C(F)(F)F)cc1F (stereo not drawn) [compound I]
herbicidal efficiency (Echinocloa crus-galli): very good herbicidal efficiency
herbicidal efficiency (Chenopodium album): very good herbicidal efficiency
herbicidal efficiency (Pharbitis purpurea): very good herbicidal efficiency
pMol IEA-Me/g fresh shoot weight ([1]; 100 μM compound I, incubation 2 hours at 37° C., mean from three measurements): 156.0 +/− 14.8 pMol IEA-Me/g fresh shoot weight
